What was measured:
Assay in all cases: relative viability (nuclei count vs DMSO), 5 days (fraction); higher = more cells survive
[1] = compound: O=C(CCCCCCNC(=O)c1cnc(N(c2ccccc2)c2ccccc2)nc1)NO [Ricolinostat] + C[C@@H](Oc1cc(-c2cnn(C3CCNCC3)c2)cnc1N)c1c(Cl)ccc(F)c1Cl [Crizotinib] (partner 1 µM)
Procedure, shortened: (§1)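 Relative viability is defined as nuclei in treated wells over nuclei in vehicle wells. Duplicate plates were run and medians reported. Lung cancer cell lines in 1536-well plates were dosed by pin tool one day after seeding, with one drug or with a fixed anchor-drug dose plus five library-drug doses (not always all listed) in √10 steps, and nuclei were counted after 5 days.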

TGX 221 + Bortezomib = compound: CC1=CN2C(=O)C=C(N=C2C(=C1)C(C)NC3=CC=CC=C3)N4CCOCC4 [TGX 221] + CC(C)C[C@H](NC(=O)[C@H](Cc1ccccc1)NC(=O)c1cnccn1)B(O)O [Bortezomib] (partner 0.002 µM)
Procedure, shortened: as §1

Ricolinostat + Lapatinib = compound: O=C(CCCCCCNC(=O)c1cnc(N(c2ccccc2)c2ccccc2)nc1)NO [Ricolinostat] + CS(=O)(=O)CCNCc1ccc(-c2ccc3ncnc(Nc4ccc(OCc5cccc(F)c5)c(Cl)c4)c3c2)o1 [Lapatinib] (partner 2 µM)
Procedure, shortened: as §1

Ricolinostat + Foretinib = compound: O=C(CCCCCCNC(=O)c1cnc(N(c2ccccc2)c2ccccc2)nc1)NO [Ricolinostat] + COc1cc2c(Oc3ccc(NC(=O)C4(C(=O)Nc5ccc(F)cc5)CC4)cc3F)ccnc2cc1OCCCN1CCOCC1 [Foretinib] (partner 0.25 µM)
Procedure, shortened: as §1

Cell Line	relative viability ([1]; first compound 0.08 µM)	relative viability ([1]; first compound 0.253 µM)	relative viability ([1]; first compound 0.8 µM)	relative viability ([1]; first compound 2.53 µM)	relative viability (TGX 221 + Bortezomib; first compound 0.08 µM)	relative viability (TGX 221 + Bortezomib; first compound 0.253 µM)	relative viability (TGX 221 + Bortezomib; first compound 0.8 µM)	relative viability (TGX 221 + Bortezomib; first compound 2.53 µM)	relative viability (TGX 221 + Bortezomib; first compound 8 µM)	relative viability (Ricolinostat + Lapatinib; first compound 0.08 µM)	relative viability (Ricolinostat + Lapatinib; first compound 0.253 µM)	relative viability (Ricolinostat + Lapatinib; first compound 0.8 µM)	relative viability (Ricolinostat + Lapatinib; first compound 2.53 µM)	relative viability (Ricolinostat + Foretinib; first compound 0.08 µM)	relative viability (Ricolinostat + Foretinib; first compound 0.253 µM)	relative viability (Ricolinostat + Foretinib; first compound 0.8 µM)	relative viability (Ricolinostat + Foretinib; first compound 2.53 µM)
NCI-H1666	0.767	1.16	0.944	0.776	0.771	0.723	0.872	0.648	0.764	0.564	0.65	0.542	0.374	0.967	1.01	1.02	0.914
NCI-H1703	0.63	1.02	0.891	0.612	0.244	0.323	0.305	0.234	0.281	1.03	0.928	1.06	1.07		0.398	0.318	0.513
NCI-H1734	0.561	0.792	0.706	0.581	0.876	0.893	0.853	0.779	0.823	1	1.05	1.02	0.891	0.728	0.85	0.915	0.926
NCI-H1755	0.786		0.893	0.79	1.03	0.855	0.97	0.887	0.886	0.812		1.02	1.01	0.853	0.925	0.903	0.91
NCI-H1915	0.853	0.868	0.882	0.809	0.897	0.963	1.04	0.914	1.02	0.965	0.958	0.858	0.965	1.07	1.03	1.07	1.03
NCI-H1975	1.01	0.954		0.884	0.459	0.351	0.384	0.39	0.305	0.878	0.914		0.664	1.04	0.975	0.822	0.917
NCI-H1993	0.798	0.854	0.923	0.964	0.932	0.838	0.963	0.785	0.892	0.714	0.867	0.796	0.91		0.893	0.854	0.856
NCI-H2009	1.02	1.04	0.938	0.888	0.995	1.02	1.02	0.948	0.769	0.812	0.887	0.832	0.74	1.16	1.19	1.2	1.05
NCI-H2023	0.567	0.715	0.605	0.508	0.947	0.864	1.06	0.861	0.857	0.552	0.91	0.792	0.487		0.799	0.786	0.742
NCI-H2085		0.81	0.819	0.848	1.05	0.856	0.889	0.809	0.724		0.679	0.715	0.573		0.867	1.02	0.783
NCI-H2087	0.891	0.791	0.709	0.688	0.832	0.759	0.916	0.956	1.06	1.07	1.05	0.921	0.698		1.09	1.07	1.05
NCI-H2126	0.862	0.945	1.06	1.01	1.09	1.08	1.06	1.06	1.08	0.615	0.751	0.719	0.801	0.864	1.23	1.16	1
NCI-H2228	0.408	0.475	0.546	0.549	1.02	0.787	1.21	0.77	0.751	0.876	0.88	1.11	0.574	0.754	1.04	0.783	0.738
NCI-H2347	0.618	0.675	0.673	0.581		0.899	0.886	0.877	0.752	0.849	0.908	0.874	0.82		1.04	0.792	0.802
NCI-H2405	0.735	0.804	0.838	0.876	0.94	1.04	1.01	0.92	0.953	0.858	1.04	1.08	1.04	0.927	1.05	1.07	1.11
NCI-H3122	0.219	0.307	0.326	0.336	1.02	1.04	0.969	0.941	1.02	0.972	1.01	1.07	0.973	0.98	0.959	1.08	1.13
PC-3 [JPC-3]	1.01	0.902	0.963	0.829	0.759	0.73	0.883	0.735	0.851	0.351	0.466	0.414	0.475		0.933	0.969	0.827
PC-14	0.882	0.912	0.907	0.761	0.895	0.89	0.828	0.804	0.874	0.243	0.291	0.263	0.172	0.954	0.898	0.892	0.828
